Literature values in PMC3150604 (Journal of medicinal chemistry, 2011).

Target: σ1 receptor
Settings: read-out: σ1 receptor Ki; literature value ref 46

## O[C@H]1CCCC[C@@H]1N1CCC(c2ccc(I)s2)CC1 [compound 5, (1S,2S)-2-(4-(5-iodothiophen-2-yl)piperidin-1-yl)cyclohexanol]
  Ki: 9.39 nM
